Data on 20 compounds can be found in patent US20240360146A1, “BRUTON'S TYROSINE KINASE AND MUTANT DEGRADER, COMPOSITION AND APPLICATION THEREOF” (HANGZHOU HEALZEN THERAPEUTICS CO., LTD., priority 2021, published 2024).

T1 sequence (Q06187 whole entry): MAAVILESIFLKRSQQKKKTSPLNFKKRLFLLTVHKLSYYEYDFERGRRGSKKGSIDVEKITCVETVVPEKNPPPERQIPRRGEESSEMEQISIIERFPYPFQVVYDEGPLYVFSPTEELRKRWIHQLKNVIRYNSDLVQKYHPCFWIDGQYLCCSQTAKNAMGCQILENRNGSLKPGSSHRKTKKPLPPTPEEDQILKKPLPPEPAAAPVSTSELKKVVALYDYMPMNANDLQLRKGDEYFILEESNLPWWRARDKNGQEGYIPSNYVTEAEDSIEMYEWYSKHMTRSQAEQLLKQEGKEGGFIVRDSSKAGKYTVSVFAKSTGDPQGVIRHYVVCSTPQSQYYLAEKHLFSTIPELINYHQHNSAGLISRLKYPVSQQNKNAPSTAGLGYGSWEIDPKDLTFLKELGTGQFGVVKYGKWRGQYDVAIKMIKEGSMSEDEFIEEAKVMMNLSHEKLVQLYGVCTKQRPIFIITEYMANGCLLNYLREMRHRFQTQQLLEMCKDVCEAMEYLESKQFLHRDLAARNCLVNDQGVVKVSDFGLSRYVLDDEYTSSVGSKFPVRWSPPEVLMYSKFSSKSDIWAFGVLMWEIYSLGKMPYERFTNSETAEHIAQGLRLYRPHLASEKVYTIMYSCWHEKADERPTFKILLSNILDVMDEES

The experiment concerns the target T1, BTK (Homo sapiens, UniProt Q06187).
T1 construct: endogenous in cells; host or cells: Mino cells
The experiment is described as follows: BTK degradation activity test in Mino cells. The note with it: 16 h incubation, Western blot or Elisa. It is filed as cell-based. How it is done: Mino cell line cells were seeded at 500,000 to 1,000,000 cells/well in a 6-well plate. The compounds were diluted to different concentrations and added to the plate, and after 16 h of incubation, cells were harvested. After lysing the cells, the total protein concentration in each well was determined using the BCA method. The amount of BTK was determined using Western blot or Elisa method. The amount of undegraded BTK protein at each drug concentration was compared with the amount of BTK protein in the blank control group to calculate the degradation rate. The degradation curve was drawn based on the degradation rate at each concentration, and the half degradation concentration (DC50) was calculated by fitting.
A general note: Immunoblotting shows a protein as a band on a membrane.
As for `CN1C(=O)N(C2CCCN(c3cnc(C(N)=O)c(Nc4ccc(C5(C)CCN(C6CN(c7ccc8c(c7)C(=O)N(C7CCC(=O)NC7=O)C8=O)C6)CC5)cc4)n3)C2)C2CCCCC21` (centres unmarked) [Compound 009, 3-((4-(1-(1-(2-(2,6-dioxopiperidin-3-yl)-1,3-dioxoisoindol-5-yl)azetidin-3-yl)-4-methylpiperidin-4-yl)phenyl)amino)-5-(3-(3-methyl-2-oxooctahydro-1H-benzo[d]imidazol-1-yl)piperidin-1-yl)pyrazin-2-carboxamide], the DC50 – broadly, the midpoint of the concentration-degradation curve – is less than 1 nM.
For `CN1C(=O)N(C2CCCN(c3cnc(C(N)=O)c(Nc4ccc(C5(C)CCN(C6CN(c7ccc8c(c7)C(=O)N(C7CCC(=O)NC7=O)C8=O)C6)CC5)cc4)n3)C2)CC12CC2` (centres unmarked) [Compound 010, 3-((4-(1-(1-(2-(2,6-dioxopiperidin-3-yl)-1,3-dioxoisoindol-5-yl)azetidin-3-yl)-4-methylpiperidin-4-yl)phenyl)amino)-5-(3-(4-methyl-5-oxo-4,6-diazaspirocyclo[2.4]heptan-6-yl)piperidin-1-yl)pyrazin-2-carboxamide] the value was more than 1 nM.
As for `CN1C(=O)N(C2CCCN(c3cnc(C(N)=O)c(Nc4ccc(C5(C)CCN(C6CN(c7ccc8c(c7)C(=O)N(C7CCC(=O)NC7=O)C8=O)C6)CC5)cc4)n3)C2)CC12CCC2` (centres unmarked) [Compound 011, 3-((4-(1-(1-(2-(2,6-dioxopiperidin-3-yl)-1,3-dioxoisoindol-5-yl)azetidin-3-yl)-4-methylpiperidin-4-yl)phenyl)amino)-5-(3-(5-methyl-6-oxo-5,7-diazaspirocyclo[3.4]octan-7-yl)piperidin-1-yl)pyrazin-2-carboxamide], the figure is less than 1 nM; as for `CC1(c2ccc(Nc3nc(N4CCCC(N5CCN(C6COC6)C5=O)C4)cnc3C(N)=O)cc2)CCN(C2CCN(c3ccc4c(c3)C(=O)N(C3CCC(=O)NC3=O)C4=O)CC2)CC1` (centres unmarked) [Compound 012, 3-((4-(1′-(2-(2,6-dioxopiperidin-3-yl)-1,3-dioxoisoindol-5-yl)-4-methyl-[1,4′-bipiperidin]-4-yl)phenyl)amino)-5-(3-(3-(oxetan-3-yl)-2-oxoimidazolin-1-yl)piperidin-1-yl)pyrazin-2-carboxamide], less than 1 nM.
`CC1(c2ccc(Nc3nc(N4CCCC(N5CCN(C6COC6)C5=O)C4)cnc3C(N)=O)cc2)CCN(C2CCN(c3ccc4c(c3)CN(C3CCC(=O)NC3=O)C4=O)CC2)CC1` (centres unmarked) [Compound 013, 3-((4-(1′-(2-(2,6-dioxopiperidin-3-yl)-1-oxoisoindol-5-yl)-4-methyl-[1,4′-bipiperidin]-4-yl)phenyl)amino)-5-(3-(3-(oxetan-3-yl)-2-oxoimidazolin-1-yl)piperidin-1-yl)pyrazin-2-carboxamide]: the DC50 was less than 1 nM.
As for `CC1(c2ccc(Nc3nc(N4CCCC(N5CCN(C6COC6)C5=O)C4)cnc3C(N)=O)cc2)CCN(C2CN(c3ccc4c(c3)CN(C3CCC(=O)NC3=O)C4=O)C2)CC1` (centres unmarked) [Compound 014, 3-((4-(1-(1-(2-(2,6-dioxopiperidin-3-yl)-1-oxoisoindol-5-yl)azetidin-3-yl)-4-methylpiperidin-4-yl)phenyl)amino)-5-(3-(3-(oxetan-3-yl)-2-oxoimidazolin-1-yl)piperidin-1-yl)pyrazin-2-carboxamide], the figure is less than 1 nM; as for `NC(=O)c1ncc(N2CCCC(N3CCN(C4COC4)C3=O)C2)nc1Nc1ccc(N2CCN(C3CN(c4ccc5c(c4)C(=O)N(C4CCC(=O)NC4=O)C5=O)C3)CC2)cc1` (centres unmarked) [Compound 015, 3-((4-(4-(1-(2-(2,6-dioxopiperidin-3-yl)-1,3-dioxoisoindol-5-yl)azetidin-3-yl)piperazin-1-yl)phenyl)amino)-5-(3-(3-(oxetan-3-yl)-2-oxoimidazolin-1-yl)piperidin-1-yl) pyrazin-2-carboxamide], less than 1 nM; as for `NC(=O)c1ncc(N2CCCC(N3CCN(C4COC4)C3=O)C2)nc1Nc1ccc(N2CCN(CC3CN(c4ccc5c(c4)C(=O)N(C4CCC(=O)NC4=O)C5=O)C3)CC2)cc1` (centres unmarked) [Compound 016, 3-((4-(4-((1-(2-(2,6-dioxopiperidin-3-yl)-1,3-dioxoisoindol-5-yl)azetidine-3-yl)methyl)piperazin-1-yl)phenyl)amino)-5-(3-(3-(oxetan-3-yl)-2-oxoimidazolin-1-yl)piperidin-1-yl)pyrazin-2-carboxamide], less than 1 nM.
`NC(=O)c1ncc(N2CCCC(N3CCN(C4COC4)C3=O)C2)nc1Nc1ccc(N2CCC3(CC2)CCN(c2ccc4c(c2)C(=O)N(C2CCC(=O)NC2=O)C4=O)CC3)cc1` (centres unmarked) [Compound 017, 3-((4-(9-(2-(2,6-dioxopiperidin-3-yl)-1,3-dioxoisoindol-5-yl)-3,9-diazaspirocyclo[5.5]undec-3-yl)phenyl)amino)-5-(3-(3-(oxetan-3-yl)-2-oxoimidazolin-1-yl)piperidin-1-yl)pyrazin-2-carboxamide] registered a half-maximal degradation concentration (DC50) of less than 1 nM.
For `NC(=O)c1ncc(N2CCCC(N3CCN(C4COC4)C3=O)C2)nc1Nc1ccc(N2CC3(C2)CN(c2ccc4c(c2)C(=O)N(C2CCC(=O)NC2=O)C4=O)C3)cc1` (centres unmarked) [Compound 018, 3-((4-(6-(2-(2,6-dioxopiperidin-3-yl)-1,3-dioxoisoindol-5-yl)-2,6-diazaspirocyclo[3.3]heptan-2-yl)phenyl)amino)-5-(3-(3-(oxetan-3-yl)-2-oxoimidazolin-1-yl)piperidin-1-yl)pyrazin-2-carboxamide] the value was less than 1 nM.
`NC(=O)c1ncc(N2CCCC(N3CCN(C4COC4)C3=O)C2)nc1Nc1ccc(N2CCC3(CC2)CC(N2CCN(c4ccc5c(c4)C(=O)N(C4CCC(=O)NC4=O)C5=O)CC2)C3)cc1` (centres unmarked) [Compound 019] registered a DC50 of more than 1 nM.
For `CC1(c2ccc(Nc3nc(N4CCCC(N5CCN(C6CCCC6)C5=O)C4)cnc3C(N)=O)cc2)CCN(C2CN(c3cccc4c3C(=O)N(C3CCC(=O)NC3=O)C4=O)C2)CC1` (centres unmarked) [Compound 020, 5-(3-(3-cyclopentyl-2-oxoimidazolin-1-yl)piperidin-1-yl)-3-((4-(1-(1-(2-(2,6-dioxopiperidin-3-yl)-1,3-dioxoisoindol-4-yl)azetidin-3-yl)-4-methylpiperidin-4-yl)phenyl)amino)pyrazin-2-carboxamide] the value was less than 1 nM.
As for `CC1(c2ccc(Nc3nc(N4CCCC(N5CCN(C6CCCC6)C5=O)C4)cnc3C(N)=O)cc2)CCN(C2CN(c3ccc(NC4CCC(=O)NC4=O)cn3)C2)CC1` (centres unmarked) [Compound 021], the figure is less than 1 nM; as for `Cn1c(=O)n(C2CCC(=O)NC2=O)c2cccc(N3CC(N4CCC(C)(c5ccc(Nc6nc(N7CCCC(N8CCN(C9CCCC9)C8=O)C7)cnc6C(N)=O)cc5)CC4)C3)c21` (centres unmarked) [Compound 022], less than 1 nM; as for `CC1(c2ccc(Nc3nc(N4CCCC(N5CCN(C6CCCC6)C5=O)C4)cnc3C(N)=O)cc2)CCN(C2CN(c3ccc4c(=O)n(C5CCC(=O)NC5=O)ccc4c3)C2)CC1` (centres unmarked) [Compound 023, 5-(3-(3-cyclopentyl-2-oxoimidazolin-1-yl)piperidin-1-yl)-3-((4-(1-(1-(2-(2,6-dioxopiperidin-3-yl)-1-oxo-1,2-dihydroisoquinolin-6-yl)azetidin-3-yl)-4-methylpiperidin-4-yl)phenyl)amino)pyrazin-2-carboxamide], more than 1 nM.
For `Cn1c(=O)n(C2CCCN(c3cnc(C(N)=O)c(Nc4ccc(C5(C)CCN(C6CN(c7ccc8c(c7)C(=O)N(C7CCC(=O)NC7=O)C8=O)C6)CC5)cc4)n3)C2)c2ccccc21` (centres unmarked) [Compound 025, 3-((4-(1-(1-(2-(2,6-dioxopiperidin-3-yl)-1,3-dioxoisoindol-5-yl)azetidin-3-yl)-4-methylpiperidin-4-yl)phenyl)amino)-5-(3-(3-methyl-2-oxo-2,3-dihydro-1H-benzo[d]imidazol-1-yl)piperidin-1-yl)pyrazin-2-carboxamide] the value was less than 1 nM.
The compound `CC1(c2ccc(Nc3nc(N4CCCC(n5cc6ccccn6c5=O)C4)cnc3C(N)=O)cc2)CCN(C2CN(c3ccc4c(c3)C(=O)N(C3CCC(=O)NC3=O)C4=O)C2)CC1` (centres unmarked) [Compound 026, 3-((4-(1-(1-(2-(2,6-dioxopiperidin-3-yl)-1,3-dioxoisoindolin-5-yl)azetidin-3-yl)-4-methylpiperidin-4-yl)phenyl)amino)-5-(3-(3-oxoimidazo[1,5-a]pyridin-2(3H)-yl)piperidin-1-yl)pyrazin-2-carboxamide] displayed a DC50 of more than 1 nM.
For `NC(=O)c1ncc(N2CCCC(N3CCN(C4CCCC4)C3=O)C2)nc1Nc1ccc(C2CCN(C3CN(c4ccc5c(c4)C(=O)N(C4CCC(=O)NC4=O)C5=O)C3)CC2)cc1` (centres unmarked) [Compound 027, 5-(3-(3-cyclopentyl-2-oxyimidazolin-1-yl)piperidin-1-yl)-3-((4-(1-(1-(2-(2,6-dioxopiperidin-3-yl)-1,3-dioxoisoindol-5-yl)azetidin-3-yl)piperidin-4-yl)phenyl)amino) pyrazin-2-carboxamide] the value was more than 1 nM.
In the case of `NC(=O)c1ncc(N2CCCC(N3CCN(C4CCCC4)C3=O)C2)nc1Nc1ccc(C(=O)C2CCN(CC3CCN(c4ccc5c(c4)C(=O)N(C4CCC(=O)NC4=O)C5=O)CC3)CC2)cc1` (centres unmarked) [Compound 028, 5-(3-(3-cyclopentyl-2-oxoimidazolin-1-yl)piperidin-1-yl)-3-((4-(1-((1-(2-(2,6-dioxopiperidin-3-yl)-1,3-dioxoisoindolin-5-yl)piperidin-4-yl)methyl)piperidin-4-formyl)phenyl)amino)pyrazin-2-carboxamide], the DC50 is more than 1 nM.
With `NC(=O)c1ncc(N2CCCC(N3CCN(C4CCCC4)C3=O)C2)nc1Nc1ccc(N2CCC(C#CCN3CCN(c4ccc5c(c4)C(=O)N(C4CCC(=O)NC4=O)C5=O)CC3)CC2)cc1` (centres unmarked) [Compound 029, 5-(3-(3-cyclopentyl-2-oxoimidazolin-1-yl)piperidin-1-yl)-3-((4-(4-(3-(4-(2-(2,6-dioxopiperidin-3-yl)-1,3-dioxoisoindolin-5-yl)piperazin-1-yl)propan-1-yne-1-yl)piperidin-1-yl)phenyl)amino)pyrazin-2-carboxamide], the DC50 is less than 1 nM.
